Data taken from ChEMBL document CHEMBL1201862, “PubChem BioAssay data set” (2004).
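Cells were grown in 96-well plates and exposed to each compound for 48 hours at five concentrations; endpoints were interpolated linearly between bracketing concentrations, or set to the highest concentration if not reached. GI50: concentration for 50% inhibition of growth.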 Active and inactive are the calls of the source. Rule as the data show it: active = GI50 up to about 1.1 µM and inactive = higher.

Experiments:
Assay in all cases: inhibition of tumour cell growth, NCI panel, 48 h
SNB-75 = system: SNB-75
MCF7 = system: MCF7
SW-620 = system: SW-620
KM12 = system: KM12
MOLT-4 = system: MOLT-4
BT-549 = system: BT-549
CAKI-1 = system: CAKI-1
SNB-19 = system: SNB-19
UACC-257 = system: UACC-257
UO-31 = system: UO-31
SK-MEL-2 = system: SK-MEL-2
OVCAR-4 = system: OVCAR-4
SK-MEL-5 = system: SK-MEL-5
HOP-92 = system: HOP-92
ACHN = system: ACHN
U-251 = system: U-251
HCC 2998 = system: HCC 2998
RPMI-8226 = system: RPMI-8226
DU-145 = system: DU-145

SMILES | GI50 (SNB-75) | GI50 (MCF7) | GI50 (SW-620) | GI50 (KM12) | GI50 (MOLT-4) | GI50 (BT-549) | GI50 (CAKI-1) | GI50 (SNB-19) | GI50 (UACC-257) | GI50 (UO-31) | GI50 (SK-MEL-2) | GI50 (OVCAR-4) | GI50 (SK-MEL-5) | GI50 (HOP-92) | GI50 (ACHN) | GI50 (U-251) | GI50 (HCC 2998) | GI50 (RPMI-8226) | GI50 (DU-145)
CCOC(=O)C(=O)C(/C(=N/N(C)C)C(=O)Nc1ccc(C)cc1C)c1nc2ccccc2nc1O (stereo not given) | > 100 µM (inactive) | > 100 µM (inactive) | > 100 µM (inactive) | > 100 µM (inactive) | > 100 µM (inactive) | > 100 µM (inactive) | > 100 µM (inactive) | > 100 µM (inactive) | > 100 µM (inactive) | > 100 µM (inactive) | > 100 µM (inactive) | > 100 µM (inactive) | > 100 µM (inactive) | > 100 µM (inactive) | > 100 µM (inactive) | > 100 µM (inactive) | > 100 µM (inactive) | > 100 µM (inactive) | –
Cc1cc2c(cc1Cl)SC(NNc1cnc3ccccc3n1)=NS2(=O)=O | 72.3 µM (inactive) | – | 67.8 µM (inactive) | 74.3 µM (inactive) | 26.6 µM (inactive) | > 100 µM (inactive) | > 100 µM (inactive) | 50.1 µM (inactive) | 72.8 µM (inactive) | 30.4 µM (inactive) | – | 56.8 µM (inactive) | 66.7 µM (inactive) | 35.7 µM (inactive) | > 100 µM (inactive) | 48.6 µM (inactive) | 67.9 µM (inactive) | – | > 100 µM (inactive)
CN(C)CCNc1ccc(NCC[N+](C)(C)Cc2ccc([N+](=O)[O-])cc2)c2c1C(=O)c1c(O)ccc(O)c1C2=O | 19.6 µM (inactive) | – | 27.9 µM (inactive) | 26.1 µM (inactive) | 0.509 µM (active) | 18.8 µM (inactive) | 12.2 µM (inactive) | > 100 µM (inactive) | – | – | > 100 µM (inactive) | > 100 µM (inactive) | 10.8 µM (inactive) | – | – | 34 µM (inactive) | > 10 µM (inactive) | 7.57 µM (inactive) | 30.1 µM (inactive)
CCOC(=O)/C(C#N)=N\Nc1ccc(-n2c(C)nc3ccc(Br)cc3c2=O)cc1 | 55.1 µM (inactive) | 72.1 µM (inactive) | 90.6 µM (inactive) | 40.3 µM (inactive) | 27.4 µM (inactive) | 88.7 µM (inactive) | > 100 µM (inactive) | 76.6 µM (inactive) | > 100 µM (inactive) | 30.5 µM (inactive) | > 100 µM (inactive) | – | 25.6 µM (inactive) | > 100 µM (inactive) | > 100 µM (inactive) | 91.2 µM (inactive) | – | 30.3 µM (inactive) | 57.4 µM (inactive)
c1csc(-c2ccc(-c3ccsc3)s2)c1 | 57.4 µM (inactive) | > 100 µM (inactive) | > 100 µM (inactive) | > 100 µM (inactive) | > 100 µM (inactive) | > 100 µM (inactive) | > 100 µM (inactive) | > 100 µM (inactive) | > 100 µM (inactive) | > 100 µM (inactive) | > 100 µM (inactive) | > 100 µM (inactive) | > 100 µM (inactive) | > 100 µM (inactive) | > 100 µM (inactive) | > 100 µM (inactive) | > 100 µM (inactive) | > 100 µM (inactive) | –
CC(C)OC1=C(CC2(C)OCCO2)C(=O)C12OCCO2 | > 100 µM (inactive) | > 100 µM (inactive) | > 100 µM (inactive) | > 100 µM (inactive) | > 100 µM (inactive) | > 100 µM (inactive) | > 100 µM (inactive) | > 100 µM (inactive) | > 100 µM (inactive) | > 100 µM (inactive) | > 100 µM (inactive) | > 100 µM (inactive) | > 100 µM (inactive) | > 100 µM (inactive) | > 100 µM (inactive) | > 100 µM (inactive) | – | – | > 100 µM (inactive)
O=C1OC(C2Cc3cc4c(cc3C2=O)CCC4)c2ccccc21 (stereo not given) | 51.4 µM (inactive) | 41.5 µM (inactive) | 37.3 µM (inactive) | 35.9 µM (inactive) | 23.7 µM (inactive) | > 10 µM (inactive) | > 100 µM (inactive) | 32.1 µM (inactive) | > 100 µM (inactive) | 55.6 µM (inactive) | 65 µM (inactive) | 78.3 µM (inactive) | 21.3 µM (inactive) | – | 47.9 µM (inactive) | 34 µM (inactive) | 21.2 µM (inactive) | 35.3 µM (inactive) | 93.1 µM (inactive)
CCC(C)N1CN(c2ccccc2)C2(CCN(CC3COc4ccccc4O3)CC2)C1=O (stereo not given) | 36.9 µM (inactive) | 18.9 µM (inactive) | 22.3 µM (inactive) | 18.1 µM (inactive) | 16.1 µM (inactive) | 14.3 µM (inactive) | 16.9 µM (inactive) | 23.7 µM (inactive) | 23.9 µM (inactive) | 10.8 µM (inactive) | – | – | 14.7 µM (inactive) | – | 33.5 µM (inactive) | 17.7 µM (inactive) | 18.2 µM (inactive) | 13.3 µM (inactive) | 21.6 µM (inactive)
CC1=CC[C@@]2(CO)[C@@H]([C@@H]1C)[C@H]1CC[C@@H]3[C@@]4(C)CC[C@H](O)C(C)(C)[C@@H]4CC[C@@]3(C)[C@]1(C)C[C@@H]2O | – | 8.43 µM (inactive) | 35.6 µM (inactive) | 38.5 µM (inactive) | 21.3 µM (inactive) | 20.3 µM (inactive) | 19.8 µM (inactive) | 35.1 µM (inactive) | 27.2 µM (inactive) | 53.3 µM (inactive) | – | 20.8 µM (inactive) | 13 µM (inactive) | 16.9 µM (inactive) | 20.7 µM (inactive) | 14.4 µM (inactive) | – | – | 23 µM (inactive)
COc1ccc(/C=N/NC(=S)Nc2cc(C)ccc2OC)cc1 | > 100 µM (inactive) | 22.9 µM (inactive) | 34.7 µM (inactive) | 31.7 µM (inactive) | 9.98 µM (inactive) | 26.6 µM (inactive) | 29.7 µM (inactive) | 46.1 µM (inactive) | – | 37.9 µM (inactive) | 19.8 µM (inactive) | 23.8 µM (inactive) | 15.6 µM (inactive) | 25.2 µM (inactive) | 37.2 µM (inactive) | – | – | 11.1 µM (inactive) | 45 µM (inactive)
CN(CC#N)C(=O)Cc1ccc([N+](=O)[O-])cc1 | – | > 10 µM (inactive) | > 10 µM (inactive) | > 10 µM (inactive) | > 10 µM (inactive) | > 10 µM (inactive) | > 10 µM (inactive) | > 10 µM (inactive) | > 10 µM (inactive) | > 10 µM (inactive) | > 10 µM (inactive) | > 10 µM (inactive) | > 10 µM (inactive) | – | > 10 µM (inactive) | > 10 µM (inactive) | > 10 µM (inactive) | > 10 µM (inactive) | > 10 µM (inactive)
Cc1ccc2c(=O)c(C(=O)N(CCO)CCO)c[nH]c2n1 | – | > 100 µM (inactive) | > 100 µM (inactive) | > 100 µM (inactive) | > 100 µM (inactive) | > 100 µM (inactive) | > 100 µM (inactive) | > 100 µM (inactive) | > 100 µM (inactive) | > 100 µM (inactive) | > 100 µM (inactive) | > 100 µM (inactive) | > 100 µM (inactive) | – | > 100 µM (inactive) | > 100 µM (inactive) | – | > 100 µM (inactive) | > 100 µM (inactive)
Nc1ncnc2c1ncn2C1OC(COP(=O)(O)CP(=O)(O)O)C(O)C1O (stereo not given) | > 100 µM (inactive) | > 100 µM (inactive) | > 100 µM (inactive) | > 100 µM (inactive) | > 100 µM (inactive) | > 100 µM (inactive) | > 100 µM (inactive) | > 100 µM (inactive) | > 100 µM (inactive) | > 100 µM (inactive) | > 100 µM (inactive) | – | > 100 µM (inactive) | – | > 100 µM (inactive) | > 100 µM (inactive) | > 100 µM (inactive) | > 100 µM (inactive) | > 100 µM (inactive)
c1cc2c(cc1C1=NCCN1)c1cc(C3=NCCN3)ccc1n2CC1CCCCC1 | 11.6 µM (inactive) | – | 20.4 µM (inactive) | 8.73 µM (inactive) | 5.05 µM (inactive) | 18.5 µM (inactive) | > 100 µM (inactive) | 5.9 µM (inactive) | 22.7 µM (inactive) | 81.3 µM (inactive) | 15.7 µM (inactive) | 22.5 µM (inactive) | 11.9 µM (inactive) | 8 µM (inactive) | > 100 µM (inactive) | 6.58 µM (inactive) | – | 22.7 µM (inactive) | 18.1 µM (inactive)
COc1cccc(-c2c(C#N)c(N)nc3c2CCS(=O)(=O)c2ccc(C)cc2-3)c1 | 33 µM (inactive) | – | > 100 µM (inactive) | > 100 µM (inactive) | – | > 100 µM (inactive) | > 100 µM (inactive) | 56.2 µM (inactive) | 65.2 µM (inactive) | > 100 µM (inactive) | > 100 µM (inactive) | 95.5 µM (inactive) | > 100 µM (inactive) | > 100 µM (inactive) | > 100 µM (inactive) | > 100 µM (inactive) | 78.2 µM (inactive) | > 100 µM (inactive) | > 100 µM (inactive)
C[N+](C)(CCCn1ccnc1[N+](=O)[O-])CCCn1ccnc1[N+](=O)[O-] | > 100 µM (inactive) | > 100 µM (inactive) | > 100 µM (inactive) | > 100 µM (inactive) | > 100 µM (inactive) | 69.8 µM (inactive) | > 100 µM (inactive) | – | > 100 µM (inactive) | > 100 µM (inactive) | > 100 µM (inactive) | > 100 µM (inactive) | > 100 µM (inactive) | – | > 100 µM (inactive) | > 100 µM (inactive) | – | > 100 µM (inactive) | > 100 µM (inactive)
